Tested on: soil urease
Assay: Efficacy test: urease inhibition in soil (urea remaining after incubation)
Assay type: biochemical
Details: 800 micrograms test compound and 42.8 mg urea per 20 g air-dry soil, incubated at 25° C. for three days, run in triplicate
Procedure: Efficacy tests were conducted to evaluate the efficacy of certain representative oximated O-diaminophosphinyl compounds as urease inhibitors. The inhibition tests were run in a New York soil (Cazenovia silt loam, pH 7.2) or in Wisconsin soil (Plano silt loam, pH 5.4). Evaluations (run in triplicate) consisted of applying 800 micrograms of the test compound in 5 mL of water and 42.8 mg of urea in 1 mL of water to 20 g of air-dry soil in a glass bottle. The bottle was capped with perforated aluminum foil and incubated at 25° C. for three days prior to extraction with 100 mL of a 2M potassium chloride solution containing 0.5 mg of phenylmercuric acetate. The extracts were then analyzed for remaining urea using an autoanalyzer. Percent inhibition was calculated as [formula] where A is urea recovered from unincubated sample (urea added to soil and immediately extracted); B is urea recovered from inhibited sample; and C is urea recovered from the control (uninhibited sample).

CC(C)=NOP(N)(N)=O [O--(Diaminophosphinyl)-2-propanone Oxime, O-(Diaminophosphinyl)-2-propanone Oxime]
% Inhibition, Cazenovia (pH 7.2) (New York soil (Cazenovia silt loam, pH 7.2)): 84%
% Inhibition, Wisconsin (pH 5.4) (Wisconsin soil (Plano silt loam, pH 5.4)): 53%

From patent US4624695A, “O-diaminophosphinyl derivatives of oximes as urease inhibitors” (Allied Corporation, priority 1983, dated 1986)
